Data as given in patent US9925222B2, “Gut barrier dysfunction treatment and prevention” (ALBERT EINSTEIN COLLEGE OF MEDICINE OF YESHIVA UNIVERSITY, priority 2012, dated 2018).

Molecular target: T1, hPXR ligand binding domain (LBD) (Homo sapiens, UniProt O75469)
T1 construct: purchased Invitrogen
T1 sequence (O75469 146-433 limits assumed): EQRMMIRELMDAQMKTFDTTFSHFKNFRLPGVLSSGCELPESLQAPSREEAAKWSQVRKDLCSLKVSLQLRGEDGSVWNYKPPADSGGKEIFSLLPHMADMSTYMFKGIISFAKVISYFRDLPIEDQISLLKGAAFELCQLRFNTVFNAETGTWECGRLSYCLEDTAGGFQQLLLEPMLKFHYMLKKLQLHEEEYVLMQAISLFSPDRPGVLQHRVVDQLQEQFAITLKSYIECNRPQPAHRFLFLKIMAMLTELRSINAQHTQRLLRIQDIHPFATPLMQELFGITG
Test: LanthaScreen TR-FRET PXR competitive binding assay, hPXR LBD
Conditions: read-out: EC50 for ligand displacement in hPXR
Experimental: A LanthaScreen TR-FRET PXR Competitive Binding Assay was conducted according to the manufacturer's protocol (Invitrogen) as previously published (14). Briefly, serial dilutions of indole 3-propionic acid (diluted in TR-FRET PXR Assay Buffer, Invitrogen) were dispensed into triplicate wells of a black, non-treated 384 well plate (Corning Life Sciences). Subsequently, 5 μl of Fluormone PXR Green was added into each well. Finally, 5 μl of a master mix containing hPXR ligand binding domain (LBD), terbium labeled anti-glutathione S transferase (final concentration 10 nM) and dithiothreitol (final concentration 0.05 mM) was added into each well. For mPXR ligand binding domain, GST tagged mPXR LBD was purified using Glutathione Sepharose 4 Fast Flow beads (GE Health Care) in Poly-Prep Chromatography columns (Bio-Rad). hPXR LBD of the assay kit was replaced with the similar concentrations of mPXR LBD. The content was mixed briefly (10 s) and incubated in dark at room temperature for 1 h. TR-FRET was measured using SpectraMaxR M5 microplate reader (Molecular Devices) with the excitation wavelength of 340 nm and emission wavelengths of 520 and 495 nm. TR-FRET ratio was calculated by dividing the emission signal at 520 nm by emission signal at 495 nm. Data are expressed as percentage TR-FRET ratio. Error bars represent s.e.m of duplicate wells from two separate experiments.

O=C(O)CCc1c[nH]c2ccccc12 [IPA, indole-3-propionic acid]
EC50: 2.1 µM
